From patent US20250212884A1, “Magnesia Compounds For Preventing Contamination Of Animal Farming Facilities And For Decontamination Of Same” (priority 2022, published 2025)

System: Salmonella
Assay: Salmonella detection (drag swabs, ISO 6579-1:2017) in poultry (turkey) buildings one week after spraying of disinfectant
Set-up: species or system Salmonella spp.
Details: Experiment 3; one week after application; 500 liter per 1000 m^2

## Cc1ccc(S(=O)(=O)NCl)cc1.[Na] [Chlorigal T, Sodium N-chloro-para-toluenesulfonamide]
  Salmonella test result, Sample #1: Negative
  Salmonella test result, Sample #2: Negative
